In the test the test system is CEM cells HIV-1 protection, formazan growth assay. The test can be described thus: NCI AIDS Antiviral Assay. The following applies: for IC50: measured here: growth of uninfected CEM cells. In a few lines: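 Screen of anti-HIV-1 activity in human CEM cells using a formazan-based growth measurement at five drug concentrations. Hits with 50% or greater protection were repeated, and confirmation required reproducible complete protection.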

Active and inactive are the calls of the source.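 How the source made its calls: active means compounds giving half or more protection of infected cells from virus-caused growth loss, again on retest; inactive means the rest.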

In the case of `CCCCCCCCCCCCCCCC=C(c1cc(Br)c(O)c(C(=O)O)c1)c1cc(Br)c(O)c(C(=O)O)c1`, the EC50 is more than 112 µM and the IC50 is 53.7 µM.

Consider `CC1=C[C@H](C[C@]2(C)c3c(c4c(C)cccc4oc3=O)O[C@@H]2C)OC1=O`, for which the EC50 was more than 200 µM and the IC50 is 26.9 µM. Consider `CN(N=O)C(=O)N[C@@H](C=O)[C@@H](O)[C@H](O)[C@H](O)CO`, for which the EC50 was more than 933 µM and the IC50 was more than 933 µM. For the compound `CN(C)c1ccc(/C=C(\C#N)C(=O)c2ccccc2)cc1Br`, the EC50 is more than 14.8 µM and the IC50 was more than 14.8 µM. Take `CC[C@@H]1CC2CN3CCc4c([nH]c5ccc(OC)cc45)C(CO)(C2)C13` (stereo partly specified): the outcome was inactive. `O=[N+]([O-])c1cc(Cl)ccc1Sc1ccccc1`: the outcome was inactive.

`COC1/C=C/OC2(C)Oc3c(C)c(O)c4c(O)c(c(/C=N/Nc5ccc([N+](=O)[O-])cc5[N+](=O)[O-])c(O)c4c3C2=O)NC(=O)C(C)=C/C=C/C(C)C(O)C(C)C(O)C(C)C(OC(C)=O)C1C` (stereo unspecified): the EC50 is more than 200 µM and the IC50 stood at 7.08 µM. Turning to `CC(C)C1=CC23CCC4C(C)(C(=O)O)CCCC4(C)C2CC1C1C(=O)N(c2ccccc2)C(=O)C13` (stereo unspecified), the EC50 was more than 52.5 µM and the IC50 is more than 52.5 µM.

For the compound `CC1N=C(SCc2c(F)cccc2Cl)N2C(C)N=C(SCc3c(F)cccc3Cl)N12` (stereo unspecified), the EC50 was more than 20.4 µM and the IC50 was more than 20.4 µM. For `COc1ccc(C23CCC(=O)N2CCS3)cc1` (stereo unspecified), the result was inactive.

Turning to `CCOC(=O)C(NC(=O)c1ccccc1)[CH](C)[Sn]([c]1ccccc1)([c]1ccccc1)[c]1ccccc1` (stereo unspecified), the EC50 was more than 200 µM and the IC50 worked out at 13.5 µM.

As to `O=C1C(Cl)N(c2cccc([N+](=O)[O-])c2)C1c1c[nH]c2ccccc12` (stereo unspecified), the EC50 is more than 105 µM and the IC50 amounted to 5.01 µM. With `CC(=O)c1cc2c3c(c1)c1cc4c(cc1c(=O)n3CC2)OCO4`, the result was inactive. `COc1cc(C2c3cc4c(cc3OC(Nc3ccccc3)C2C)OCO4)cc(OC)c1OC` (stereo unspecified): the EC50 was more than 200 µM and the IC50 is 0.275 µM. In the case of `[O]=[Bi](=[O])[O]CC(O)CO` (stereo unspecified), the EC50 is more than 4.37 µM and the IC50 is more than 4.37 µM.

With `CNC(=S)Nc1ccc(OC)c2ccccc12`, the EC50 was more than 200 µM and the IC50 is more than 200 µM. With `c1ccc(-c2sc(-c3cccs3)cc2Cc2cccs2)cc1`, the EC50 is more than 200 µM and the IC50 stood at 83.2 µM. As for `COC(=O)c1c(C#N)[nH]c(-c2ccsc2)c1C(=O)OC`, the EC50 was more than 200 µM and the IC50 was determined as 52.5 µM. Take `Cc1cccc(C(C)(C)C)c1NC(=O)CC1Sc2ccccc2NC1=O` (stereo unspecified): the EC50 was more than 51.3 µM and the half-inhibitory concentration (IC50) is more than 51.3 µM. For `O=C(Nc1ccc(Cl)cc1)C(=O)C1=C(O)c2ccccc2OC1`, the EC50 is more than 102 µM and the half-inhibitory concentration (IC50) is more than 102 µM. With `CCCS(=N)(=O)CCC(N)C(=O)O` (stereo unspecified), the EC50 is more than 200 µM and the IC50 was more than 200 µM. `O=C(CCC(NC(=O)OCc1ccccc1)C(=O)OCc1ccccc1)Nc1ccc(OCc2ccccc2)cc1` (stereo unspecified): the EC50 is more than 200 µM and the IC50 is 126 µM. Take `COC1/C=C/OC2(C)Oc3c(C)c(O)c4c(O)c(c(/C=N/N5CCN(Cc6cccc(C(F)(F)F)c6)CC5)c(O)c4c3C2=O)NC(=O)C(C)=C/C=C/C(C)C(O)C(C)C(O)C(C)C(OC(C)=O)C1C` (stereo unspecified): the EC50 is more than 200 µM and the IC50 turned out to be 6.92 µM. Take `Clc1cc(Cl)c(SSc2cc(Cl)c(Cl)cc2Cl)cc1Cl`: the EC50 was more than 200 µM and the IC50 was more than 200 µM. `O=c1ccccc2cccc(O)c12`: the result was inactive.

On to `O=c1[nH]c(=O)ss1`, for which the EC50 was more than 105 µM and the IC50 is more than 100 µM. With `COc1cccc(-c2nc(-c3cnccn3)n(C3OC(CO)C(O)C(O)C3O)n2)c1` (stereo unspecified), the EC50 was more than 200 µM and the half-maximal inhibitory concentration (IC50) is more than 200 µM. Turning to `OCCN1CSC(=S)NCCNC(=S)SC1`, the EC50 is more than 63.1 µM and the IC50 is more than 63.1 µM.

Values taken from PubChem BioAssay AID179 (DTP/NCI, 2004).
